Tests used:
[1] = system: mutant FGFR4-driven RMS tumor; design: method as in PMID 24124571; settings: cited from earlier work
[2] = system: RH4 xenograft; assay: two-drug combination xenograft efficacy study; type: in vivo, NSG mice; settings: futibatinib 15 mg/kg, irinotecan 25 mg/kg, vincristine 0.4 mg/kg, vehicle 39
[3] = two-drug combination tolerability study; type: in vivo, mice; settings: futibatinib oral M-F three weeks, irinotecan iv Monday for three weeks, vincristine iv once
Description: Figure A4 Two-drug combination tolerability study. (A) Schematic of tolerability study. […] Irinotecan was given via tail vein injection at two dosages (75 mg/kg and 50 mg/kg) on Monday for three weeks. (B) Relative body weights of mice treated with the futibatinib-vincristine or futibatinib-irinotecan combinations.

[4] = system: RMS559 xenograft; assay: triple combination xenograft efficacy study; type: in vivo, NSG mice; settings: for median survival: futibatinib 10 mg/kg oral M-F 3 weeks, irinotecan 6 mg/kg iv once, vincristine 0.4 mg/kg iv once, vehicle 11
[5] = system: RMS559 xenograft; assay: two-drug combination xenograft efficacy study; settings: for median survival: futibatinib 15 mg/kg, irinotecan 25 mg/kg, vincristine 0.4 mg/kg, vehicle 23
[6] = system: SCMC xenograft; assay: two-drug combination xenograft efficacy study; type: in vivo, NSG mice; settings: for Days (survival, inset of Figure 4): SCMC xenograft, futibatinib 15 mg/kg, irinotecan 50 mg/kg decreased to 25 mg/kg, vincristine 0.4 mg/kg, vehicle 30
[7] = system: RH4 xenograft; assay: futibatinib single agent xenograft efficacy study; settings: 5-25 mg/kg daily (SID) oral gavage, three weeks, vs vehicle
[8] = in vivo; settings: NOD SCID Gamma (NSG), mouse, plasma, po, 25 mg/kg, 25 mg/kg oral gavage, single dose, SCMC tumor-bearing mice
[9] = system: phosphorylation of FGFR4 and ERK1/2 in RMS559; assay: Western blot of RMS559 treated with futibatinib; type: cell-based, human; settings: increasing concentrations, 6 h
Description: Cells were collected with a cell scraper, then pelleted by centrifugation, washed with ice-cold PBS, and lysed in RIPA buffer with 1% HALT Protease and Phosphatase inhibitors. Lysates were sonicated to shear genomic DNA and clarified by centrifugation at 18,000× g for 20 min. The protein concentration of the resulting supernatant was determined by BCA assay. 20 μg of protein was run on NuPage 4–12% BisTris gels (Invitrogen, Carlsbad, CA, USA) and transferred to PVDF membranes (Invitrogen). Membranes were blocked in 5% nonfat dried milk in TBST for 1 h at room temperature and incubated with primary antibody overnight at 4 °C. HRP-conjugated anti-rabbit secondary antibody was used to probe the primary antibody. Protein was visualized using Amersham ECL Western Blotting Detection Reagent (Amersham, UK). The following antibodies were used: pFGFR4 (ab192589, Abcam, Cambridge, UK), FGFR4 (8562, Cell Signaling Technology (CST), Danvers, MA, USA), pERK1/2 (4370, CST), ERK1/2 (4695, CST), and GAPDH (8884, CST). Relative band intensity was quantified in Image Lab software (Version 5.2.1, Bio-Rad, Philadelphia, PA, USA)

[10] = system: SCMC xenograft; assay: futibatinib single agent xenograft efficacy study; settings: 5-25 mg/kg daily (SID) oral gavage, three weeks, vs vehicle
[11] = system: advanced solid tumors with FGFR aberrations; settings: 197 patients with advanced solid tumors with FGFR aberrations; cited from earlier work
[12] = system: RMS559 xenograft; assay: futibatinib single agent xenograft efficacy study; settings: 5-25 mg/kg daily (SID) oral gavage, three weeks, vs vehicle
[13] = system: RMS559 xenograft; design: method as in PMID 36097178; settings: RMS559 xenograft models; twice daily dosing, nude mice; cited from earlier work

Row | Compound | Days (survival, inset of Figure 4) [2] | maximum tolerated dosages for the drug combinations [3] | median survival [4] | median survival [5] | Days (survival, inset of Figure 4) [6] | other results
1 | Cc1ccc(C(=O)Nc2ccc(CN3CCN(C)CC3)c(C(F)(F)F)c2)cc1C#Cc1cnc2cccnn12 [ponatinib] | – | – | – | – | – | effect on tumor growth in mice [1]: inhibit mutant FGFR4-driven RMS tumor growth
2 | CC[C@]1(O)C[C@H]2CN(CCc3c([nH]c4ccccc34)[C@@](C(=O)OC)(c3cc4c(cc3OC)N(C=O)[C@H]3[C@@](O)(C(=O)OC)[C@H](OC(C)=O)[C@]5(CC)C=CCN6CC[C@]43[C@@H]65)C2)C1 [vincristine] | 41 days | 0.4 mg/kg | 15 days | 23 days | 37 days | average tumor volume ([5]; day 18 of treatment, futibatinib 15 mg/kg oral M-F 3 weeks, irinotecan 25 mg/kg iv Monday 3 weeks, vincristine 0.4 mg/kg iv once): 1016 mm^3
3 | C=CC(=O)N1CC[C@H](n2nc(C#Cc3cc(OC)cc(OC)c3)c3c(N)ncnc32)C1 [futibatinib] | 36 days | 15 mg/kg | 15 days | 23 days | 33 days | effect in delaying tumor growth or prolonging survival [7]: no significant effect; average tumor volume ([4]; day 11 of treatment, futibatinib 10 mg/kg oral M-F, vehicle 1532): 1072 mm^3; half-life [8]: ~4 h; phosphorylation of FGFR4 and ERK1/2 (western blot) [9]: inhibited phosphorylation of FGFR4 and a downstream target ERK1/2 in a dose-dependent manner; effect in delaying tumor growth or prolonging survival [10]: no significant effect; objective response rate (ORR) [11]: 13.7%; effect in delaying tumor growth or prolonging survival [12]: no significant effect
4 | CCc1c2c(nc3ccc(OC(=O)N4CCC(N5CCCCC5)CC4)cc13)-c1cc3c(c(=O)n1C2)COC(=O)[C@]3(O)CC [irinotecan] | 51.5 days | 50 mg/kg | 15 days | 29 days | 48 days | toxicity of dose ([6]; irinotecan 50 mg/kg iv on Monday, SCMC xenograft study): toxic
5 | COCCNc1cc(NC(=O)N2CCCc3cc(CN4CCN(C)CC4=O)c(C=O)nc32)ncc1C#N [FGF401] | – | – | – | – | – | effect on tumor progression [13]: effective at delaying tumor progression

Reference: publication PMC10452847 (Cancers, 2023)
